We go through 18 molecules from patent publication US20240067632A1, “WEE1 Degrading Compounds and Uses Thereof” (Bristol-Myers Squibb Company, priority 2022, published 2024).

The target of one test is T1, WEE1 (Homo sapiens, UniProt P30291+Q96SW2).
T1 construct: C-terminal ePL-tagged (DiscoverX, Fremont, CA) full-length WEE1 expression construct; expressed in transfected cells; host or cells: LentiX-HEK293T (Invitrogen), lentiviral transduction; co-expressing GSPT1-GN (G576N, lacking the first 158 amino acids)
The test can be described thus: WEE1-ePL degradation assay (LentiX-WEE1-ePL-GSPT1-ND cells, InCELL Hunter luminescence, 4 h). Conditions: 293T-LentiX WEE1-ePL cells; for 293T-LentiX WEE1-ePL Degradation 4 hr (Ymin): lower limit of the fit (0 = luciferase inhibitor, Ymax = DMSO control); for DC50: read-out: 293T-LentiX WEE1-ePL Degradation 4 hr (EC50). It counts as cell-based. The method, boiled down:
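LentiX-HEK293T cells stably expressing C-terminally ePL-tagged full-length WEE1 were treated with compounds in a 10-point, 3-fold dilution series starting at 1 uM or 10 uM for 4 h at 37 °C. Remaining WEE1-ePL was detected by InCELL Hunter luminescence, and EC50, Ymin and Ymax came from a four-parameter logistic fit against DMSO control.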

Another test deals with MKN45 cells. The test is described as follows: MKN45 cell proliferation assay (Cell-Titer-Glo, 120 h). It counts as cell-based. Conditions: for EC50: Homo sapiens, MKN-45, 120 h, Cell-Titer-Glo, growth inhibition, read-out: MKN45 Cell Prolif. 120 hr (EC50); for MKN45 Cell Prolif. 120 hr (Ymin-Obs): minimal percent of DMSO control observed in the concentrations tested. The method, boiled down:
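Growth inhibition was read as blank-corrected Cell-Titer-Glo luminescence expressed as percent DMSO control after 120 h at 37 C, 400 cells/well. Compounds tested in triplicate as 10-point half-log series from 1 or 10 uM, 0.1% DMSO; four-parameter fit gave EC50, and lowest observed percent control was reported as Ymin-obs.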

For orientation: EC50 means the concentration that produces a half-maximal response.

For `O=C1CCC(N2Cc3cc(O[C@H]4CCN(Cc5ccc6nc(N7CCC78CCOCC8)ccc6c5)C4)ccc3C2=O)C(=O)N1` (stereo partly drawn) [3-(5-{[(3S)-1-[(2-{7-oxa-1-azaspiro[3.5]nonan-1-yl}quinolin-6-yl)methyl]pyrrolidin-3-yl]oxy}-1-oxo-2,3-dihydro-1H-isoindol-2-yl)piperidine-2,6-dione], on WEE1, the “293T-LentiX WEE1-ePL Degradation 4 hr (Ymin)” value was 33 and the DC50 stood at 6.05 nM. In the test on MKN45 cells, the concentration for a half-maximal effect (EC50) was 3.7 nM and the “MKN45 Cell Prolif. 120 hr (Ymin-Obs)” value worked out at 7.36.

In the case of `O=C1CCC(N2Cc3cc(O[C@H]4CCN(Cc5ccc6nc(N7CC8(CCOCC8)C7)ncc6c5)C4)ccc3C2=O)C(=O)N1` (stereo partly drawn) [3-(5-{[(3S)-1-[(2-{7-oxa-2-azaspiro[3.5]nonan-2-yl}quinazolin-6-yl)methyl]pyrrolidin-3-yl]oxy}-1-oxo-2,3-dihydro-1H-isoindol-2-yl)piperidine-2,6-dione], on WEE1, the “293T-LentiX WEE1-ePL Degradation 4 hr (Ymin)” value stood at 35 and the DC50 is 16.6 nM. In the test with MKN45 cells, the EC50 is 10.2 nM and the “MKN45 Cell Prolif. 120 hr (Ymin-Obs)” value was determined as 9.958.

As to `O=C1CCC(N2Cc3cc(O[C@H]4CCN(Cc5ccc6nc(N7CC8(CCOCC8)C7)ccc6c5)C4)ccc3C2=O)C(=O)N1` (stereo partly drawn) [3-(5-{[(3S)-1-[(2-{7-oxa-2-azaspiro[3.5]nonan-2-yl}quinolin-6-yl)methyl]pyrrolidin-3-yl]oxy}-1-oxo-2,3-dihydro-1H-isoindol-2-yl)piperidine-2,6-dione], on WEE1, the “293T-LentiX WEE1-ePL Degradation 4 hr (Ymin)” value is listed as 36 and the DC50 was found to be 1.94 nM. In the test on MKN45 cells, the EC50 was 2.84 nM and the “MKN45 Cell Prolif. 120 hr (Ymin-Obs)” value was determined as 10.13.

As to `O=C1CCC(N2Cc3cc(O[C@H]4CCN(Cc5ccc6nc(N7CCCC78CCOCC8)ncc6c5)C4)ccc3C2=O)C(=O)N1` (stereo partly drawn) [3-(5-{[(3S)-1-[(2-{8-oxa-1-azaspiro[4.5]decan-1-yl}quinazolin-6-yl)methyl]pyrrolidin-3-yl]oxy}-1-oxo-2,3-dihydro-1H-isoindol-2-yl)piperidine-2,6-dione], at WEE1, the “293T-LentiX WEE1-ePL Degradation 4 hr (Ymin)” value worked out at 47 and the DC50 came out at 18.1 nM. Also, in the test on MKN45 cells, the EC50 was 14.1 nM and the “MKN45 Cell Prolif. 120 hr (Ymin-Obs)” value turned out to be 20.87.

Turning to `O=C1CCC(N2Cc3cc(O[C@H]4CCN(Cc5ccc6nc(N7CCCC78CCOCC8)ccc6c5)C4)ccc3C2=O)C(=O)N1` (stereo partly drawn) [3-(5-{[(3S)-1-[(2-{8-oxa-1-azaspiro[4.5]decan-1-yl}quinolin-6-yl)methyl]pyrrolidin-3-yl]oxy}-1-oxo-2,3-dihydro-1H-isoindol-2-yl)piperidine-2,6-dione], on WEE1, the “293T-LentiX WEE1-ePL Degradation 4 hr (Ymin)” value was determined as 47 and the DC50 was determined as 11.3 nM. In addition, in the test with MKN45 cells, the 50% effective concentration (EC50) was determined as 15.5 nM and the “MKN45 Cell Prolif. 120 hr (Ymin-Obs)” value worked out at 20.2.

As for `O=C1CCC(N2Cc3cc(O[C@H]4CCN(Cc5ccc6ncc(F)cc6c5F)C4)ccc3C2=O)C(=O)N1` (stereo partly drawn) [3-(5-{[(3S)-1-[(3,5-difluoroquinolin-6-yl)methyl]pyrrolidin-3-yl]oxy}-1-oxo-2,3-dihydro-1H-isoindol-2-yl)piperidine-2,6-dione], at WEE1, the “293T-LentiX WEE1-ePL Degradation 4 hr (Ymin)” value is on record as 28.96 and the DC50 was found to be 8.71 nM. Moreover, in the test with MKN45 cells, the EC50 was determined as 38.3 nM and the “MKN45 Cell Prolif. 120 hr (Ymin-Obs)” value is 12.86.

Regarding `Cc1cnc2ccc(CN3CC[C@H](Oc4ccc5c(c4)CN(C4CCC(=O)NC4=O)C5=O)C3)c(C)c2c1` (stereo partly drawn) [3-(5-{[(3S)-1-[(3,5-dimethylquinolin-6-yl)methyl]pyrrolidin-3-yl]oxy}-1-oxo-2,3-dihydro-1H-isoindol-2-yl)piperidine-2,6-dione], on WEE1, the “293T-LentiX WEE1-ePL Degradation 4 hr (Ymin)” value is recorded as 39.05 and the DC50 stood at 7.92 nM. Also, in the test on MKN45 cells, the concentration for a half-maximal effect (EC50) turned out to be 93.8 nM and the “MKN45 Cell Prolif. 120 hr (Ymin-Obs)” value came to 53.11.

As for `Cc1nc2ccc(CN3CC[C@H](Oc4ccc5c(c4)CN(C4CCC(=O)NC4=O)C5=O)C3)cc2cc1F` (stereo partly drawn) [3-(5-{[(3S)-1-[(3-fluoro-2-methylquinolin-6-yl)methyl]pyrrolidin-3-yl]oxy}-1-oxo-2,3-dihydro-1H-isoindol-2-yl)piperidine-2,6-dione], on WEE1, the “293T-LentiX WEE1-ePL Degradation 4 hr (Ymin)” value is given as 33.29 and the DC50 turned out to be 6.95 nM. In addition, in the test on MKN45 cells, the concentration giving a half-maximal response (EC50) amounted to 53.6 nM and the “MKN45 Cell Prolif. 120 hr (Ymin-Obs)” value is 18.86.

For `O=C1CCC(N2Cc3cc(O[C@H]4CCN(Cc5ccc6ncc(F)cc6c5)C4)ccc3C2=O)C(=O)N1` (stereo partly drawn) [3-(5-{[(3S)-1-[(3-fluoroquinolin-6-yl)methyl]pyrrolidin-3-yl]oxy}-1-oxo-2,3-dihydro-1H-isoindol-2-yl)piperidine-2,6-dione], at WEE1, the “293T-LentiX WEE1-ePL Degradation 4 hr (Ymin)” value is listed as 34.66 and the DC50 is 8.72 nM. In addition, in the test on MKN45 cells, the EC50 was 75.7 nM and the “MKN45 Cell Prolif. 120 hr (Ymin-Obs)” value was 19.555.

With `COc1cnc2ccc(CN3CC[C@H](Oc4ccc5c(c4)CN(C4CCC(=O)NC4=O)C5=O)C3)cc2c1` (stereo partly drawn) [3-(5-{[(3S)-1-[(3-methoxyquinolin-6-yl)methyl]pyrrolidin-3-yl]oxy}-1-oxo-2,3-dihydro-1H-isoindol-2-yl)piperidine-2,6-dione], on WEE1, the “293T-LentiX WEE1-ePL Degradation 4 hr (Ymin)” value is reported as 34 and the DC50 stood at 3.25 nM. For the same molecule, in the test on MKN45 cells, the EC50 was 19.1 nM and the “MKN45 Cell Prolif. 120 hr (Ymin-Obs)” value is recorded as 12.81.

Consider `Cc1cnc2ccc(CN3CC[C@H](Oc4ccc5c(c4)CN(C4CCC(=O)NC4=O)C5=O)C3)cc2c1` (stereo partly drawn) [3-(5-{[(3S)-1-[(3-methylquinolin-6-yl)methyl]pyrrolidin-3-yl]oxy}-1-oxo-2,3-dihydro-1H-isoindol-2-yl)piperidine-2,6-dione], for which, at WEE1, the “293T-LentiX WEE1-ePL Degradation 4 hr (Ymin)” value worked out at 38.21 and the DC50 stood at 4.47 nM. Moreover, in the test on MKN45 cells, the EC50 came to 63.5 nM and the “MKN45 Cell Prolif. 120 hr (Ymin-Obs)” value was 21.51.

On to `Cc1cncc(CN2CC[C@H](Oc3ccc4c(c3)CN(C3CCC(=O)NC3=O)C4=O)C2)c1C` (stereo partly drawn) [3-(5-{[(3S)-1-[(4,5-dimethylpyridin-3-yl)methyl]pyrrolidin-3-yl]oxy}-1-oxo-2,3-dihydro-1H-isoindol-2-yl)piperidine-2,6-dione], for which, on WEE1, the “293T-LentiX WEE1-ePL Degradation 4 hr (Ymin)” value was 37.63 and the DC50 is 40.7 nM. In the test with MKN45 cells, the 50% effective concentration (EC50) turned out to be 407 nM and the “MKN45 Cell Prolif. 120 hr (Ymin-Obs)” value is listed as 62.92.

For the molecule `Cc1cc(Cl)c2cc(CN3CC[C@H](Oc4ccc5c(c4)CN(C4CCC(=O)NC4=O)C5=O)C3)ccc2n1` (stereo partly drawn) [3-(5-{[(3S)-1-[(4-chloro-2-methylquinolin-6-yl)methyl]pyrrolidin-3-yl]oxy}-1-oxo-2,3-dihydro-1H-isoindol-2-yl)piperidine-2,6-dione], on WEE1, the “293T-LentiX WEE1-ePL Degradation 4 hr (Ymin)” value came to 32.06 and the DC50 was 4.29 nM. Besides, in the test on MKN45 cells, the EC50 came out at 392 nM and the “MKN45 Cell Prolif. 120 hr (Ymin-Obs)” value turned out to be 44.06.

With `Cc1cc(F)c2cc(CN3CC[C@H](Oc4ccc5c(c4)CN(C4CCC(=O)NC4=O)C5=O)C3)ccc2n1` (stereo partly drawn) [3-(5-{[(3S)-1-[(4-fluoro-2-methylquinolin-6-yl)methyl]pyrrolidin-3-yl]oxy}-1-oxo-2,3-dihydro-1H-isoindol-2-yl)piperidine-2,6-dione], on WEE1, the “293T-LentiX WEE1-ePL Degradation 4 hr (Ymin)” value worked out at 69.445 and the DC50 stood at 22.7 nM. Moreover, in the test on MKN45 cells, the concentration giving a half-maximal response (EC50) is at least 10000 nM and the “MKN45 Cell Prolif. 120 hr (Ymin-Obs)” value turned out to be 24.82.

For the molecule `Cc1cc(O)c2cc(CN3CC[C@H](Oc4ccc5c(c4)CN(C4CCC(=O)NC4=O)C5=O)C3)ccc2n1` (stereo partly drawn) [3-(5-{[(3S)-1-[(4-hydroxy-2-methylquinolin-6-yl)methyl]pyrrolidin-3-yl]oxy}-1-oxo-2,3-dihydro-1H-isoindol-2-yl)piperidine-2,6-dione], at WEE1, the “293T-LentiX WEE1-ePL Degradation 4 hr (Ymin)” value amounted to 73 and the DC50 turned out to be 528 nM. Also, in the test on MKN45 cells, the EC50 is over 10000 nM and the “MKN45 Cell Prolif. 120 hr (Ymin-Obs)” value is on record as 87.83.

On to `COc1cc(C)nc2ccc(CN3CC[C@H](Oc4ccc5c(c4)CN(C4CCC(=O)NC4=O)C5=O)C3)cc12` (stereo partly drawn) [3-(5-{[(3S)-1-[(4-methoxy-2-methylquinolin-6-yl)methyl]pyrrolidin-3-yl]oxy}-1-oxo-2,3-dihydro-1H-isoindol-2-yl)piperidine-2,6-dione], for which, on WEE1, the “293T-LentiX WEE1-ePL Degradation 4 hr (Ymin)” value was 44.38 and the DC50 was 26.8 nM. In the test with MKN45 cells, the concentration giving a half-maximal response (EC50) came out at 1500 nM and the “MKN45 Cell Prolif. 120 hr (Ymin-Obs)” value is on record as 47.92.

For `CN1CC(=O)Oc2cc(CN3CC[C@H](Oc4ccc5c(c4)CN(C4CCC(=O)NC4=O)C5=O)C3)ccc21` (stereo partly drawn) [3-(5-{[(3S)-1-[(4-methyl-2-oxo-3,4-dihydro-2H-1,4-benzoxazin-7-yl)methyl]pyrrolidin-3-yl]oxy}-1-oxo-2,3-dihydro-1H-isoindol-2-yl)piperidine-2,6-dione], at WEE1, the “293T-LentiX WEE1-ePL Degradation 4 hr (Ymin)” value was 52 and the DC50 is 24.2 nM. For the same molecule, in the test with MKN45 cells, the EC50 was over 10000 nM and the “MKN45 Cell Prolif. 120 hr (Ymin-Obs)” value is recorded as 91.915.

As for `CN1C(=O)COc2ccc(CN3CC[C@H](Oc4ccc5c(c4)CN(C4CCC(=O)NC4=O)C5=O)C3)cc21` (stereo partly drawn) [3-(5-{[(3S)-1-[(4-methyl-3-oxo-3,4-dihydro-2H-1,4-benzoxazin-6-yl)methyl]pyrrolidin-3-yl]oxy}-1-oxo-2,3-dihydro-1H-isoindol-2-yl)piperidine-2,6-dione], at WEE1, the “293T-LentiX WEE1-ePL Degradation 4 hr (Ymin)” value was determined as 56 and the DC50 was 47.9 nM. Further, in the test on MKN45 cells, the concentration for a half-maximal effect (EC50) was over 10000 nM and the “MKN45 Cell Prolif. 120 hr (Ymin-Obs)” value is listed as 84.725.
